Results as given in paper PMC8165160, “Substrate Specificities and Inhibition Pattern of the Solute Carrier Family 10 Members NTCP, ASBT and SOAT” (Frontiers in Molecular Biosciences, 2021).
Counter-ions that a name gives are not always drawn. Like-named read-outs stand apart in the source and are kept apart here.

Assays:
NTCP = molecular target: T1, NTCP (Homo sapiens, UniProt Q14973); assay: Substrate screening: sodium-dependent uptake of radiolabeled compounds in NTCP-HEK293 cells; format: cell-based; design: The full-length open reading frames of NTCP, ASBT, and SOAT were cloned; expressed in transfected cells; host or cells: Flp-In T-REX HEK293 (NTCP-HEK293), tetracycline-induced; details: NTCP-HEK293, vs sodium-free control
T1 sequence (Q14973 1-349): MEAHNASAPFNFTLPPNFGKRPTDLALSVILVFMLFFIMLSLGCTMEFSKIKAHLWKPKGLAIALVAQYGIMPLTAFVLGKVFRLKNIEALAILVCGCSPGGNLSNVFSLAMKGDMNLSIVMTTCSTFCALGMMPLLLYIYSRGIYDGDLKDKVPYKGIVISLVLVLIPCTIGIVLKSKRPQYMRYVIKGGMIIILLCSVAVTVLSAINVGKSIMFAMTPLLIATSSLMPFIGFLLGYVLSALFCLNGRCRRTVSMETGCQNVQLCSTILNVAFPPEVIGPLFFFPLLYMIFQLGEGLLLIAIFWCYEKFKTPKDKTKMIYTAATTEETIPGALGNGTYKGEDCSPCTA
Method: Stably SLC10 transporter transfected NTCP-HEK293, ASBT-HEK293, SOAT-HEK293 cells and the HEK293-FlpIn maternal cell line were seeded on 24-well plates (if not stated otherwise for individual assays). Well plates were coated with poly-D-lysine prior to seeding of 125,000 cells per well. Cells were grown with 1 ml of standard medium per well with or without tetracycline ([…]) for 72 h to induce carrier expression before respective assays were started. HEK293-FlpIn cells were cultivated with standard medium and served as control.
Uptake experiments were initiated by replacing the preincubation buffer by 500 μL transport buffer containing the radiolabeled test compound and were performed at 37°C. Transport was terminated by removing the transport buffer and washing five-times with ice-cold PBS. Cell monolayers were lysed in 1 N NaOH with 0.1% SDS and the cell-associated radioactivity was determined by liquid scintillation counting.
FIGURE 1 Comparative substrate screening for bile acids and sulfated steroids in NTCP-, ASBT-, and SOAT-HEK293 cells. Transport assays were performed with the indicated substrates in NTCP-HEK293, ABST-HEK293, SOAT-HEK293, and HEK293-FlpIn cells. Cells were washed and equilibrated with Na^+-containing transport buffer (filled bars) or with Na^+-free transport buffer (open bars) at 37°C. For uptake, cells were incubated with radiolabeled steroid compounds at a final concentration of 200 nM in Na^+-containing or Na^+-free transport buffer for 10 min. Radiolabeled bile acids were used at 1 µM concentrations and transport was analyzed over 30 min. HEK293-FlpIn cells served as additional controls. After the indicated time intervals, cells were washed with ice-cold PBS, lysed and subjected to liquid scintillation counting. […] 3-OH, trihydroxylated BAs; 2-OH, dihydroxylated BAs; 1-OH, monohydroxylated BAs.

SOAT = molecular target: T2, SOAT (Homo sapiens, UniProt Q3KNW5); assay: Transport inhibition in SOAT-HEK293 cells; format: cell-based; details: substrate inhibitors, 1 min after 5 min preincubation
T2 construct: The full-length open reading frames of NTCP, ASBT, and SOAT were cloned; expressed in transfected cells; host or cells: Flp-In T-REX HEK293 (SOAT-HEK293), tetracycline-induced
T2 sequence (Q3KNW5 1-377): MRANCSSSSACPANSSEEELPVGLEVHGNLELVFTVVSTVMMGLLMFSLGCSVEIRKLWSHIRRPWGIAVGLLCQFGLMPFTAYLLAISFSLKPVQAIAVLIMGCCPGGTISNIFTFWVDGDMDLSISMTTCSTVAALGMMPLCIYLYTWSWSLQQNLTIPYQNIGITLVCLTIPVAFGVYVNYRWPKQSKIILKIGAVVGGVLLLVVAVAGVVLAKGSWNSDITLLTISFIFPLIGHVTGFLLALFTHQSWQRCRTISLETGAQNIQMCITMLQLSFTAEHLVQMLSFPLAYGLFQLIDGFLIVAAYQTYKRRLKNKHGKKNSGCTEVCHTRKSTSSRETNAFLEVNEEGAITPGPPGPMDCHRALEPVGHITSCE
Method: Cells were washed three times with PBS and were preincubated with the respective inhibitor in sodium transport buffer for 5 min at 37°C. Uptake was initiated by adding the respective radiolabeled substrate to the well and incubating for a fixed time as indicated in the figures at 37°C. Transport was terminated by removing the transport buffer and washing five-times with ice-cold PBS. Cell monolayers were lysed in 1 N NaOH with 0.1% SDS and the cell-associated radioactivity and protein content was determined as described above. For uptake inhibition with the myr-preS1 peptide the sodium transport buffer contained additionally MEM-amino acid solution (ThermoFisher) at 1:50 dilution.
All transport or inhibition graphs were generated with GraphPad Prism 6.0 (GraphPad). Determination of IC50 values was done by nonlinear regression analysis using the equation log (inhibitor) vs. response settings. If not stated otherwise in the legends all data represent means ± SD of at least triplicate determinations of representative experiments.
FIGURE 3 Inhibition of NTCP, ASBT, and SOAT with substrate inhibitors. Transport of [^3H]TC, [^3H]TLC, and [^3H]DHEAS was analyzed in NTCP-HEK293, ASBT-HEK293, and SOAT-HEK293 cells in the presence of the substrate inhibitors TC, TLC, and DHEAS at increasing concentrations ranging from 100 nM till 1000 µM. After 5 min of preincubation with the respective inhibitory compound, 200 nM [^3H]TLC, [^3H]TC or [^3H]DHEAS were added for additional 1 min and the cell lysates were analyzed by liquid scintillation counting. Unspecific uptake of HEK293-FlpIn cells was set to 0%. Carrier-specific uptake without inhibitor was set to 100%.
Transport of [^3H]TC, [^3H]TLC, and [^3H]DHEAS was analyzed in NTCP-HEK293, ASBT-HEK293, and SOAT-HEK293 cells in the presence of different supposed non-substrate triterpenoid inhibitors as indicated at increasing concentrations ranging from 100 nM till 1000 µM. After 5 min of preincubation with the respective inhibitory compound, 1 µM [^3H]TLC, [^3H]TC or [^3H]DHEAS were added for additional 10 min at 37°C and the cell lysates were analyzed by liquid scintillation counting. Experiments performed without inhibitor were set to 100%. Means of negative controls were subtracted to calculate net transport rates (expressed as percentage of control). Data represent means ± SD of quadruplicate determinations of representative experiments.

[1] = SOAT IC50, substrate [3H]DHEAS, 200 nM [3H]DHEAS
[2] = SOAT IC50, substrate [3H]TLC, 200 nM [3H]TLC
[3] = radiolabeled bile acids 1 µM, 30 min

| SMILES | Transport activity grading NTCP (mean uptake) (NTCP; radiolabeled steroid compounds 200 nM, 10 min) | IC50 (SOAT; [1]) [µM] | IC50 (SOAT; [2]) [µM] | Transport activity grading NTCP (mean uptake) (NTCP; [3]) | IC50 (SOAT; 200 nM [3H]DHEAS, read-out: SOAT IC50, substrate [3H]DHEAS) [µM] | IC50 (SOAT; 200 nM [3H]TLC, read-out: SOAT IC50, substrate [3H]TLC) [µM] |
| --- | --- | --- | --- | --- | --- | --- |
| C[C@]12CC[C@H](OS(=O)(=O)O)CC1=CC[C@@H]1[C@@H]2CC[C@]2(C)C(=O)CC[C@@H]12 [DHEAS, Dehydroepiandrosterone sulfate] | + (Mean uptake “+” for values below 10) | 51.7 | 15 |  |  |  |
| C[C@H](CCC(=O)NCCS(=O)(=O)O)[C@H]1CC[C@H]2[C@@H]3[C@H](O)C[C@@H]4C[C@H](O)CC[C@]4(C)[C@H]3C[C@H](O)[C@]12C [Taurocholic acid] |  | 99.7 | 143 | +++ (“+++” for values above 1000 pmol/mg protein/30 min) |  |  |
| C[C@H](CCC(=O)NCCS(=O)(=O)O)[C@H]1CC[C@H]2[C@@H]3CC[C@@H]4C[C@H](O)CC[C@]4(C)[C@H]3CC[C@]12C [Taurolithocholic acid] |  |  |  | +++ (“+++” for values above 1000 pmol/mg protein/30 min) | 3.9 | 2.6 |
